Measurements as given in US20160363580A1, “Methods of Metabolic Kinetic Phenotyping and Uses Thereof” (The Texas A&M University System, priority 2015, published 2016).

Test: Pulse tracer protocol (bolus L-[15N]-Phe), two compartmental model of Phe kinetics
Assay type: in vivo, pigs
Conditions: for EC Phe pool (extracellular Phe pool, Q1) / Flux of Phe between intra- and extracellular pool (F12, F21) / Frac. irr. loss (fractional irreversible loss of Phe from the intracellular pool, k02) / IC Phe pool (intracellular Phe pool, Q2) / IC Phe release (fractional intracellular release to extracellular pool, k12) / IC Phe uptake (fractional intracellular uptake from extracellular pool, k21) / Irr. loss (irreversible loss of Phe from the intracellular pool, F02): mean±SEM; for Q1 plasma pool size, mean value: SAAM II fit
Experimental: Female Yorkshire cross/domestic pigs (20-25 kg BW) were used in the experimental studies. The pigs were housed in steel pens (2 m×3 m) in a controlled housing facility with large animal cubicle at room temperature 22-24° C. with 12 hours light-dark cycle. The pigs were fed with standardized food 1 kg/day (Harlan Teklad Vegetarian Pig/Sow Grower)) and provided water ad libitum.
Animals received catheters and a jejunal stoma during a surgical procedure. During midline laparotomy, catheters were placed into the abdominal aorta for blood sampling, and in the caval vein for administering post-surgery medication and experiment related tracer infusions. A second arterial catheter was placed to monitor mean arterial blood pressure (MAP). A Swan ganz catheter (5 Fr, #132F5, Edwards life sciences, Irvine, Calif., USA) was placed via the right jugular vein to monitor mean pulmonary blood pressure (MPAP). Both preoperative and postoperative cares were standardized. During the recovery period (7-10 days) animals were accustomed to a small movable cage (0.9×0.5×0.3 m). The experiments were performed in this cage on awake animals. This study was approved by the animal experiment ethics committee of University of Arkansas Medical Sciences.
For the induction of sepsis, a live Pseudomonas aeruginosa (PM) human strain is used (IRS 12-4-4, Shriners burns institute, University of Texas Medical Branch, Galveston). Originally, this PM strain was isolated from a burnt patient at Brook Army Medical Center in San Antonio, Tex. Based on pilot virulence experiment, 10^9 Colony Forming Units per hour (CFU/hour) in a volume of 1 ml 0.9% NaCl solution was needed to obtain similar cardiovascular responses and hemodynamic variables with characteristics of severe hyperdynamic sepsis. Hemodynamics was continuously monitored to ensure that the hyperdynamic state was kept in the expected ranges for severe sepsis (body temp increase of 2-3° C., respiratory rate increased, MPAP increased but <35 mmHg, heart rate increased but <200 BPM).
The experiment started after a recovery period of 7-10 days. Four hours after the last food intake (half of the daily amount: 0.5 kg), animals were selected from the Sepsis group or the Healthy group in a randomized fashion. […] At T=0 h, sepsis was induced to the sepsis group by continuous infusion of Pseudomonas aeruginosa (PM, 10^9 CFU/ml/hour), while the Healthy group received an equal volume of 0.9% NaCl solution. Fluid resuscitation (30 ml/kg bw/hour) was also started at T=0 h and hemodynamics were monitored continuously. The results for the primed-continuous tracer protocol (PC) and the pulse tracer protocol were compared between 17 and 18 hours after the start of Pseudomonas aeruginosa. At t=18 h, the pigs were euthanized with 125 mg/k pentobarbital sodium and 16 mg phenytoin sodium (Euthanasol®).
Two stable isotopes of Phe: L-[ring-^13C6]-Phe and L-[^15N]-Phe (Cambridge Isotopes, Andover, Mass.) were used as tracers to study whole body rate of appearances of Phe (WbRa) with two tracer infusion protocols. Phe has been used to determine whole body protein breakdown. Previously studies were conducted based on the prime amount and tracer infusion rates. For the primed-continuous infusion protocol (PC), L-[ring-^13C6]-Phe was used. The prime (1.58 μmol/kg bw) and infusion (4.32 μmol/kg bw/hour) was given respectively in a volume of 2 ml/kg bw and 2 ml/kg bw/hour. It started 12 hours after the start of Pseudomonas aeruginosa, which is also 5 hours before the pulse protocol (PULSE). The L-[^15N]-Phe (26.3 μmol/kg bw in a volume 0.5 ml/kg bw) was used for the pulse protocol. All tracers are given via the central caval vein catheter.
Blood samples were taken and directly cooled on ice. The blood samples were processed within one hour. For amino acid concentration and enrichment analysis, heparinized blood was centrifuged at 4° C., 8000 G for 5 minutes. […]

k02 proportionality constant, mean value (Healthy pigs): 0.033 min⁻¹ | k12 proportionality constant, mean value (Healthy pigs): 0.051 min⁻¹ | k21 proportionality constant, mean value (Healthy pigs): 0.115 min⁻¹ | EC Phe pool (extracellular Phe pool, Q1) (Healthy pigs n=9): 44 ± 2.2 μmol/kg BW | Flux of Phe between intra- and extracellular pool (F12, F21) (Healthy pigs n=9): 5.02 ± 0.40 μmol/kg BW/min | Frac. irr. loss (fractional irreversible loss of Phe from the intracellular pool, k02) (Healthy pigs n=9): 3.33 ± 0.21 %/min | IC Phe pool (intracellular Phe pool, Q2) (Healthy pigs n=9): 105 ± 8.0 μmol/kg BW | IC Phe release (fractional intracellular release to extracellular pool, k12) (Healthy pigs n=9): 5.09 ± 0.69 %/min | IC Phe uptake (fractional intracellular uptake from extracellular pool, k21) (Healthy pigs n=9): 11.5 ± 0.71 %/min | Irr. loss (irreversible loss of Phe from the intracellular pool, F02) (Healthy pigs n=9): 3.38 ± 0.10 μmol/kg BW/min | Q1 plasma pool size, mean value (Healthy pigs): 1121 µmol | k02 proportionality constant, mean value (Sepsis pigs): 0.028 min⁻¹ | k12 proportionality constant, mean value (Sepsis pigs): 0.044 min⁻¹ | k21 proportionality constant, mean value (Sepsis pigs): 0.105 min⁻¹ | EC Phe pool (extracellular Phe pool, Q1) (Sepsis pigs n=13): 63 ± 5.5 μmol/kg BW | Flux of Phe between intra- and extracellular pool (F12, F21) (Sepsis pigs n=13): 6.86 ± 0.42 μmol/kg BW/min | Frac. irr. loss (fractional irreversible loss of Phe from the intracellular pool, k02) (Sepsis pigs n=13): 2.83 ± 0.15 %/min | IC Phe pool (intracellular Phe pool, Q2) (Sepsis pigs n=13): 157 ± 8.2 μmol/kg BW | IC Phe release (fractional intracellular release to extracellular pool, k12) (Sepsis pigs n=13): 4.43 ± 0.25 %/min | IC Phe uptake (fractional intracellular uptake from extracellular pool, k21) (Sepsis pigs n=13): 10.6 ± 0.76 %/min | Irr. loss (irreversible loss of Phe from the intracellular pool, F02) (Sepsis pigs n=13): 4.33 ± 0.16 μmol/kg BW/min | Q1 plasma pool size, mean value (Sepsis pigs): 1655 µmol | intracellular pool relative to extracellular pool (pigs): 2.2 times
SMILES: N[C@@H](Cc1ccccc1)C(=O)O [Phe, phenylalanine]
